Assay results taken from patent US11203577B2, “Sulfonyl-structure-containing triazinone derivatives, their preparation methods and their uses in insect killing and/or bacterium killing” (Nankai University, priority 2017, dated 2021).

Assays:
Potato late blight = test: microbe, parasite or virus in culture; format: cell-based; details: Phytophthora infestans, 96 h, read-out: Fungicidal activity (%) Potato late blight
Rice bakanae disease = test: In vitro fungicidal activity, PDA colony diameter; format: cell-based; details: 50 mg/kg, inhibition of colony diameter; read-out: Fungicidal activity (%) Rice bakanae disease
Rice sheath blight = test: In vitro fungicidal activity, PDA colony diameter; format: cell-based; details: 50 mg/kg, inhibition of colony diameter; read-out: Fungicidal activity (%) Rice sheath blight
Tomato early blight = test: In vitro fungicidal activity, PDA colony diameter; format: cell-based, Alternaria solani; details: 50 mg/kg, inhibition of colony diameter; read-out: Fungicidal activity (%) Tomato early blight
[1] = system: Corn southern leaf blight; test: In vitro fungicidal activity, PDA colony diameter; format: cell-based; details: 50 mg/kg, inhibition of colony diameter; read-out: Fungicidal activity (%) Corn southern leaf blight
[2] = system: Cercospora brown spot of peanut; test: In vitro fungicidal activity, PDA colony diameter; format: cell-based; details: 96 h, 50 mg/kg, inhibition of colony diameter, read-out: Fungicidal activity (%) Cercospora brown spot of peanut
[3] = system: mosquito larvae (Culer pipiens pallens); test: Test of insecticidal activity against mosquito larvae (checked after 24 h); details: 24 h, read-out: Mortalities (%) against mosquito larvae
Armyworms = test: Test of insecticidal activity against armyworms (leaf immersion); details: 600 mg/kg, 3-4 days
Wheat sheath blight = test: In vitro fungicidal activity, PDA colony diameter; format: cell-based; details: 50 mg/kg, inhibition of colony diameter; read-out: Fungicidal activity (%) Wheat sheath blight
Apple ring rot = test: In vitro fungicidal activity, PDA colony diameter; format: cell-based; details: inhibition of colony diameter
Experimental: (§1) Here, the test is described in an example of Alternaria solani; it can be replaced by other fungi.
(§2) In vitro testing method: Alternaria solani is inoculated to a PDA culture medium and cultured for 7 days, a fungus dish with a diameter of […] is prepared on the periphery of the colony with a punch and inoculated to a PDA culture medium that contains pesticide at a concentration of 50 mg/kg and a PDA culture medium that doesn't contain the pesticide, and are cultured for 4 days respectively; then, the colony diameters are measured, and the inhibition percentages of the pesticides are calculated by comparing with the control sample.

[4] = system: Capsicum phytophthora blight; test: In vitro fungicidal activity, PDA colony diameter; format: cell-based; details: 96 h
Experimental: as §1, §2

Cucumber fusarium wilt = test: In vitro fungicidal activity, PDA colony diameter; format: cell-based; details: 96 h, 50 mg/kg, inhibition of colony diameter, read-out: Fungicidal activity (%) Cucumber fusarium wilt
Sclerotinia rot of colza = test: In vitro fungicidal activity, PDA colony diameter; format: cell-based; details: 96 h, 50 mg/kg, inhibition of colony diameter, read-out: Fungicidal activity (%) Sclerotinia rot of colza
[5] = system: bean aphides (Aphis laburni Kaltenbach); test: Test of insecticidal activity against aphides (leaf immersion, checked after 96 h); details: for mortality at 2.5 mg/kg / mortality at 5 mg/kg / mortality at 10 mg/kg / mortality at 100 mg/kg / mortality at 600 mg/kg: Aphis, 96 h, read-out: Mortalities (%) against aphides
Experimental: The insecticidal activity against aphides is tested through the following steps: the tested aphides are bean aphides (Aphis laburni Kaltenbach), a normal colony fed with broad bean leaves in a laboratory. The pesticide is weighed, 1 mL DMF is added to dissolve the pesticide, then two drops of emulsifier, Tween-20 are added, and distilled water is added in an appropriate amount; the mixture is stirred to a homogeneous state to prepare pesticide solution at required concentration (see the following table for the specific concentration). […] In a control group, only emulsifier and solvent are added into distilled water, and the mixture is stirred to a homogeneous state.

Cotton bollworms = test: Test of insecticidal activity against cotton bollworms (pesticide mixed into feedstuff); details: read-out: Mortalities (%) Cotton bollworms
Experimental: Method of testing against cotton bollworms: the pesticide is mixed into the feedstuff, i.e., 3 mL prepared solution is added into about 27 g freshly prepared feedstuff; thus, required concentration is obtained by diluting by 10 times.

Watermelon anthracnose = test: In vitro fungicidal activity, PDA colony diameter; format: cell-based; details: 50 mg/kg, inhibition of colony diameter; read-out: Fungicidal activity (%) Watermelon anthracnose
Maize borers = test: Test of insecticidal activity against maize borers (leaf immersion); details: read-out: Mortalities (%) Maize borers
Wheat head blight = test: whole plant or invertebrate; format: cell-based; details: Triticum aestivum, read-out: Fungicidal activity (%) Wheat head blight

For `CC1=NNC(=O)N(NS(=O)(=O)c2c(C)cc(C)cc2C)C1` [Ia-13, 2,4,6-trimethyl-N-(6-methyl-3-oxo-2,3-dihydro-1,2,4-triazin-4(5H)-yl)-benzenesulfonamide], the inhibition of growth at 50 mg/kg (Potato late blight) was 25%, the inhibition at 50 mg/kg (Rice bakanae disease) was 13.8% and the inhibition at 50 mg/kg (Rice sheath blight) was 11.6%. It also gave an inhibition at 50 mg/kg (Tomato early blight) of 9%, an inhibition at 50 mg/kg [1] of 28.1% and an inhibition of growth at 50 mg/kg [2] of 12%. The mortality at 2 mg/kg [3] was 20%, the mortality at 5 mg/kg [3] was 100% and the mortality at 10 mg/kg [3] was 100%. For the same compound, the “Mortalities (%) Armyworms” value (Armyworms) was 65%, the inhibition at 50 mg/kg (Wheat sheath blight) was 4.3% and the inhibition at 50 mg/kg (Apple ring rot) was 10.8%. It also gave an inhibition of growth at 50 mg/kg [4] of 22.2%, an inhibition of growth at 50 mg/kg (Cucumber fusarium wilt) of 0% and an inhibition of growth at 50 mg/kg (Sclerotinia rot of colza) of 21%. For the same compound, the mortality at 2.5 mg/kg [5] was 10%, the mortality at 5 mg/kg [5] was 60% and the mortality at 10 mg/kg [5] was 100%. It also gave a mortality at 100 mg/kg [5] of 100%, a mortality at 600 mg/kg [5] of 100% and a mortality at 600 mg/kg (Cotton bollworms) of 30%. For the same compound, the inhibition at 50 mg/kg (Watermelon anthracnose) was 24.6%, the mortality at 600 mg/kg (Maize borers) was 45% and the inhibition at 50 mg/kg (Wheat head blight) was 16.2%.

Compound `COc1ccc(S(=O)(=O)NN2CC(C)=NNC2=O)cc1` [Ia-14, 4-methoxy-N-(6-methyl-3-oxo-2,3-dihydro-1,2,4-triazin-4(5H)-yl)-benzenesulfonamide] has an inhibition of growth at 50 mg/kg (Potato late blight) of 3.1%, an inhibition at 50 mg/kg (Rice bakanae disease) of 10.3% and an inhibition at 50 mg/kg (Rice sheath blight) of 11.6%. The inhibition at 50 mg/kg (Tomato early blight) was 13.4%, the inhibition at 50 mg/kg [1] was 9.3% and the inhibition of growth at 50 mg/kg [2] was 12%. For the same compound, the mortality at 2 mg/kg [3] was 10%, the mortality at 5 mg/kg [3] was 95% and the mortality at 10 mg/kg [3] was 100%. The “Mortalities (%) Armyworms” value (Armyworms) was 0%, the inhibition at 50 mg/kg (Wheat sheath blight) was 21.7% and the inhibition at 50 mg/kg (Apple ring rot) was 33.8%. It also gave an inhibition of growth at 50 mg/kg [4] of 13.9%, an inhibition of growth at 50 mg/kg (Cucumber fusarium wilt) of 8.8% and an inhibition of growth at 50 mg/kg (Sclerotinia rot of colza) of 15.8%. It also gave a mortality at 2.5 mg/kg [5] of 35%, a mortality at 5 mg/kg [5] of 100% and a mortality at 10 mg/kg [5] of 100%. The mortality at 100 mg/kg [5] was 100%, the mortality at 600 mg/kg [5] was 100% and the mortality at 600 mg/kg (Cotton bollworms) was 0%. For the same compound, the inhibition at 50 mg/kg (Watermelon anthracnose) was 26.2%, the mortality at 600 mg/kg (Maize borers) was 0% and the inhibition at 50 mg/kg (Wheat head blight) was 16.2%.

`CC1=NNC(=O)N(NS(=O)(=O)c2ccc(C(C)(C)C)cc2)C1` [Ia-15, 4-tert-butyl-N-(6-methyl-3-oxo-2,3-dihydro-1,2,4-triazin-4(5H)-yl)-benzenesulfonamide] was tested, and the inhibition of growth at 50 mg/kg (Potato late blight) was 9.7%, the inhibition at 50 mg/kg (Rice bakanae disease) was 24.1% and the inhibition at 50 mg/kg (Rice sheath blight) was 17.4%. It also gave an inhibition at 50 mg/kg (Tomato early blight) of 20.9%, an inhibition at 50 mg/kg [1] of 9.3% and an inhibition of growth at 50 mg/kg [2] of 12%. The mortality at 2 mg/kg [3] was 40%, the mortality at 5 mg/kg [3] was 100% and the mortality at 10 mg/kg [3] was 100%. The “Mortalities (%) Armyworms” value (Armyworms) was 60%, the inhibition at 50 mg/kg (Wheat sheath blight) was 9.3% and the inhibition at 50 mg/kg (Apple ring rot) was 16.2%. It also gave an inhibition of growth at 50 mg/kg [4] of 5.6%, an inhibition of growth at 50 mg/kg (Cucumber fusarium wilt) of 8.8% and an inhibition of growth at 50 mg/kg (Sclerotinia rot of colza) of 15.8%. It also gave a mortality at 2.5 mg/kg [5] of 10%, a mortality at 5 mg/kg [5] of 85% and a mortality at 10 mg/kg [5] of 100%. For the same compound, the mortality at 100 mg/kg [5] was 100%, the mortality at 600 mg/kg [5] was 100% and the mortality at 600 mg/kg (Cotton bollworms) was 40%. The inhibition at 50 mg/kg (Watermelon anthracnose) was 14.7%, the mortality at 600 mg/kg (Maize borers) was 45% and the inhibition at 50 mg/kg (Wheat head blight) was 13.5%.

Work on `CC1=NNC(=O)N(NS(=O)(=O)c2ccccc2F)C1` [Ia-16, 2-fluoro-N-(6-methyl-3-oxo-2,3-dihydro-1,2,4-triazin-4(5H)-yl)-benzenesulfonamide] yielded an inhibition of growth at 50 mg/kg (Potato late blight) of 3.1%, an inhibition at 50 mg/kg (Rice bakanae disease) of 27.6% and an inhibition at 50 mg/kg (Rice sheath blight) of 11.6%. For the same compound, the inhibition at 50 mg/kg (Tomato early blight) was 13.4%, the inhibition at 50 mg/kg [1] was 0% and the inhibition of growth at 50 mg/kg [2] was 8%. For the same compound, the mortality at 2 mg/kg [3] was 30%, the mortality at 5 mg/kg [3] was 100% and the mortality at 10 mg/kg [3] was 100%. For the same compound, the “Mortalities (%) Armyworms” value (Armyworms) was 10%, the inhibition at 50 mg/kg (Wheat sheath blight) was 14.3% and the inhibition at 50 mg/kg (Apple ring rot) was 17.6%. For the same compound, the inhibition of growth at 50 mg/kg [4] was 13.9%, the inhibition of growth at 50 mg/kg (Cucumber fusarium wilt) was 2.9% and the inhibition of growth at 50 mg/kg (Sclerotinia rot of colza) was 15.8%. For the same compound, the “insecticidal activity against aphides compared with pymetrozine” value ([5]; 5 mg/kg) was “equivalent to the insecticidal activity of pymetrozine”, the mortality at 5 mg/kg [5] was 30% and the mortality at 10 mg/kg [5] was 90%. For the same compound, the mortality at 100 mg/kg [5] was 100%, the mortality at 600 mg/kg [5] was 100% and the mortality at 600 mg/kg (Cotton bollworms) was 10%. For the same compound, the inhibition at 50 mg/kg (Watermelon anthracnose) was 8.2%, the mortality at 600 mg/kg (Maize borers) was 15% and the inhibition at 50 mg/kg (Wheat head blight) was 10.8%.
